# Molecular target: T1, MUSK (Homo sapiens, UniProt O15146)
# T1 construct: purchased Thermo Fisher Scientific (Life Technologies) SelectScreen
# Assay: SelectScreen Z'LYTE
# Type: biochemical
# Outline: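 NU5455 was profiled across the SelectScreen Broad panel of kinase activity and binding assays. Z'LYTE reactions such as CSF1R ran at apparent Km ATP, while the Adapta CAMK1 assay used ATP listed as 10. Values are given as percent.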
# T1 sequence (O15146 24-869): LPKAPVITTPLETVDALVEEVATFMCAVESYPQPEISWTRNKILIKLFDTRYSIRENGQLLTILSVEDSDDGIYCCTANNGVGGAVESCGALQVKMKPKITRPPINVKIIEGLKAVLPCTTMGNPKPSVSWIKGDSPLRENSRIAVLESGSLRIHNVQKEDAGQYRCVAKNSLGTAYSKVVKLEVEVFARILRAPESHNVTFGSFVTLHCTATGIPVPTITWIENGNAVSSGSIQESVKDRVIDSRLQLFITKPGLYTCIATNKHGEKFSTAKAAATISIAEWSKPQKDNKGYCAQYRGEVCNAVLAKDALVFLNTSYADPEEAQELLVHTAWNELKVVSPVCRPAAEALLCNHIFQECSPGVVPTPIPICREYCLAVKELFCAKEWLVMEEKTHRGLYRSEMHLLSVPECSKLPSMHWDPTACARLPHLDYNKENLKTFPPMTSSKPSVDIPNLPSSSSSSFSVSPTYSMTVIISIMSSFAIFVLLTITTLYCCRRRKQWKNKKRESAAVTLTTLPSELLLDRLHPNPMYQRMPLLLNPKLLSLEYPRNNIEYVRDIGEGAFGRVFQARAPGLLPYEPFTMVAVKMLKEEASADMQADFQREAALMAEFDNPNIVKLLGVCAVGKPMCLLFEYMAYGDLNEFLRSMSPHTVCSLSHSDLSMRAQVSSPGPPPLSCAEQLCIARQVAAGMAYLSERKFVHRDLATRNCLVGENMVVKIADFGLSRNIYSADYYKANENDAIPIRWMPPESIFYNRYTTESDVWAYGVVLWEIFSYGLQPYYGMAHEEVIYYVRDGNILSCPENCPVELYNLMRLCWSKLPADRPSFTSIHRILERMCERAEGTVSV
smiles,measurement,value
CN(C(=O)CN1CCOCC1)c1ccc2sc3c(-c4cccc5c(=O)cc(N6CC7CCC(C6)O7)oc45)cccc3c2c1 [NU5455],inhibition at 1 µM,10.3%
